The structures appear in SMILES notation.

The target of this data set is T1, PXR (Homo sapiens, UniProt O75469).
T1 construct: host or cells: DPX2 (HepG2 stably transfected)
T1 sequence (O75469 1-434): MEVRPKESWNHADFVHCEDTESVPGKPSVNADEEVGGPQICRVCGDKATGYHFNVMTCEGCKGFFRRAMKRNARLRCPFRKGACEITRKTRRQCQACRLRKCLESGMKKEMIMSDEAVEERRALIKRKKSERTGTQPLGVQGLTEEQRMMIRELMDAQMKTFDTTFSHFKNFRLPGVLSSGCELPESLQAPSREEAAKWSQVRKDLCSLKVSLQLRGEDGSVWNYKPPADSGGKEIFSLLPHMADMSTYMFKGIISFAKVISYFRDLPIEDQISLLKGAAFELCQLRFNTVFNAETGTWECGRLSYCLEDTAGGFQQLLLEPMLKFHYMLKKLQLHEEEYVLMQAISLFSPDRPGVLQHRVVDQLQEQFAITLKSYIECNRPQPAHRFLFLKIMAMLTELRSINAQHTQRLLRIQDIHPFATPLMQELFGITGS
Nature of the data set: PXR activation in stably transfected DPX2 cells (CYP3A4 promoter-driven luciferase reporter). Conditions: 24 or 48 hours, test concentration not given. Type of data set: cell-based. The procedure:
The purpose of this study was to evaluate the potential of the compounds of the present disclosure and the comparative compound (WO2023183850A1, compound of formula A) to activate PXR in vitro, thereby inducing drug-metabolizing enzymes.
DPX2 cells (HepG2 cell line stably transfected with PXR and a CYP3A4 promoter-driven luciferase reporter gene) were purchased from Puracyp Inc (Carlsbad, CA). Fetal bovine serum was purchased from Acantor.
• 1) DPX2 cells were cultured in medium containing 10% fetal bovine serum (FBS). • 2) DPX2 cells were cultured in a T-75 flask in a cell culture incubator at 37°C with 5% CO2 and 95% relative humidity. The cells were subjected to trypsinization when they reached 80% to 90% confluence. • 3) The medium was aspirated from the T-75 flask, and the cells were rinsed with 10 mL of PBS. After removing PBS, 3 to 5 mL of trypsin was added. The flask was incubated at 37°C for approximately 5 minutes or until cell detachment and floating were observed. […] After 24 or 48 hours of cell treatment, quantification of PXR activation was performed. • 8) CellTiter Fluor™ Cell Viability Assay Kit and One-Glo Luciferase Assay Kit were equilibrated to room temperature. […] 25 µL of the prepared cell viability assay system was gently added to each well, followed by incubation for 30 minutes in the cell culture incubator at 37°C. • 10) The 384-well plate was removed from the cell culture incubator, and fluorescence of individual wells was measured using a microplate reader in fluorescence mode with excitation at 400 nm and emission at 505 nm. Subsequently, 25 µL of the prepared luciferase assay system was gently added to each well, followed by vortexing and incubation at room temperature for 5 minutes, and luminescence of individual wells was measured using a microplate reader.
Cell viability percentage was calculated using the following formula: Cell viability (%) = Isample / Ivehicle × 100, where Isample is the mean fluorescence intensity of treated wells; Ivehicle is the mean fluorescence intensity of cells treated with 0.1% DMSO. […]
On the technique in general: Reporter assays use an easily measured gene product as a stand-in for the process of interest.
Turning to `CCc1nc2n(-c3nnc(C(F)F)s3)c3cc(S(=O)(=O)NC4(C)CC4)cc(N4C[C@H](C)N[C@@H](C)C4)c3n2n1` [Compound 065R], the Fold activation is reported as 1.45. Take `C[C@H]1CN(c2cc(S(=O)(=O)NC3(C)CC3)cc3c2n2nc(C(F)F)nc2n3-c2nnc(C(F)F)s2)C[C@H](C)N1` [Compound 065S]: the Fold activation was 1.82. The result for `C[C@H]1CN(c2cc(S(=O)(=O)NC3(C)CC3)cc3c2n2nc(C(F)(F)F)nc2n3-c2nnc(C(F)F)s2)C[C@H](C)N1` [Compound 065W] reads 1.11.

The values are drawn from patent publication EP4800013A1, “PARG INHIBITOR” (Shanghai Qilu Pharmaceutical Research and Development …, priority 2023, dated 2025).
